This passage reports melting point results from a melting point compilation (Tetko et al.; mined from patent text by program, amines drawn as free bases though some values may be those of a salt).

In general, melting point refers to the temperature of the solid-liquid transition.

Some results are limits rather than exact numbers.

Turning to `Cn1c(=O)cc(CCc2ccc(Cl)s2)c2cc(C(O)(c3ccc(Cl)cc3)c3cccnc3)ccc21` (stereo unspecified), the melting point amounted to 110 °C. As for `C[C@@H](NC(=O)c1c[nH]c2ncc(-c3nn(C)c4cc(Cl)cc(Cl)c34)nc12)C(=O)N1CC(C#N)C1`, the melting point lay in the range of 196 to 200 °C. In the case of `CS(=O)(=S)OCCC(=O)O` (stereo unspecified) it was 44 to 46 °C. In the case of `CN(Cc1ccc(NC(=O)C2=Cc3cc(-c4cccc(Cl)c4)ccc3S(=O)(=O)CC2)cc1)C1CCOCC1` it was 221 to 224 °C; in that of `CCCCOc1ccc(C(=O)N[C@@H]2CCc3cccc(C4CCN(C)CC4)c3C2)cc1`, 162 to 164 °C; in that of `COc1nc2ncnc(NCc3ccco3)c2[nH]1`, 196 to 198 °C. Take `CCOC(=O)c1ccc(NC(=O)c2sc3ccc(OC)cc3c2OC(C)C)nc1`: the melting point was 131 to 133 °C. In the case of `CCOC(=O)COc1ccc(C[C@H](C)NS(=O)(=O)c2ccccc2)cc1` it was 109 to 110 °C. `N#Cc1ncccc1-c1ccc2c(c1)C1(CCCCC1)C(=O)N2` gave a melting point of 232 to 234 °C. In the case of `Cc1ccc(-c2cc(CO)nn2-c2ccc(S(N)(=O)=O)cc2)cc1` it was 166 to 169 °C. In the case of `CCCCCCCCCCCCOc1cccc2c(OCCCCCCCCCCCC)cccc12` it was 92 to 93 °C. In the case of `CN(C)c1ccc(C(=O)Nc2ccc3ccc(Cl)nc3n2)cc1` it was 248 °C; in that of `CCCCn1nc(C)c(C(N)=O)c1Cc1ccc(-c2ccccc2-c2nnn[nH]2)cc1`, 204 to 208 °C. The compound `Cc1ccc(OC2CN(S(=O)(=O)c3ccc(C)cc3)CCc3ccccc32)cc1` (stereo unspecified) showed a melting point of 84 to 86 °C. In the case of `Cc1nc2c(N)nc3ccccc3c2n1CCC1(O)CCOCC1` it was greater than 253 °C; in that of `CC(=O)NC[C@H]1CN(c2ccc3c(c2)N(C(=O)OCc2ccccc2)[C@H](C)C3)C(=O)O1`, 201 to 203 °C. In the case of `CC(C)(CC(=O)O)c1ccccc1SSc1ccccn1` it was 122 to 125 °C; in that of `FC(F)(F)c1ccc2nc(N3CCN(Cc4c(Cl)cccc4Cl)CC3)[nH]c2c1`, 254 to 256 °C; in that of `CCOC(=O)CCC(=O)c1cnc2c(OC)cccc2c1Nc1ccccc1C`, 210 to 211 °C. In the case of `CCCCCC1CCc2cc(C(=O)Oc3ccc(C#N)cc3)ccc2C1` (stereo unspecified) it was 72.7 to 73.3 °C; in that of `CS(=O)(=O)c1ccc(-c2cnn(-c3cccc(Cl)c3)c(=O)c2Cc2ccc(F)cc2)cc1`, 183 to 185 °C. `CC(=O)Nc1ccccc1Sc1ccc([N+](=O)[O-])cc1[N+](=O)[O-]` yielded a melting point of 183 to 184 °C. `O=C(O)Cc1c(C(=O)c2ccc(Cl)cc2)[nH]c2ccc(OC(F)(F)F)cc12`: the melting point turned out to be 195 °C. In the case of `CCOC(=O)N1CCN(C2c3ccccc3C=Cc3ccccc32)CC1` it was 159 to 160 °C; in that of `CCOC(=O)C(=Cc1cccn2cc(C(C)(C)C)nc12)N=[N+]=[N-]`, 108 to 110 °C. In the case of `CC(C)CCCNC1c2ccccc2C(=O)N1c1ccc2ccc(Cl)nc2n1` (stereo unspecified) it was 131 °C; in that of `COC(=O)c1ccc(COc2ccc3cc(-c4ccc(-c5ccccc5)[nH]4)ccc3c2)c(C(=O)OC)c1`, 203 to 205 °C; in that of `CNC(=O)COc1cc(C(F)(F)F)cc(C(F)(F)F)c1`, 98 to 99 °C. In the case of `COC(=O)c1ccc(O)nc1C1=NC(C)(C(C)C)C(=O)N1` (stereo unspecified) it was 186 to 191 °C; in that of `CCCCC1=CC(=C(Br)Br)N(Cc2ccccc2)C1=O`, 56 to 58 °C; in that of `Cn1c(CCc2cc(C(F)(F)F)cc(C(F)(F)F)c2)c(Cc2c[nH]c3ccccc23)oc1=O`, 109 to 110 °C. In the case of `COC(=O)CCc1cc2cc(Cl)ccc2n1S(=O)(=O)c1ccccc1`, the melting point was 93 to 96 °C.

With `COc1ccc(NS(=O)(=O)c2ccc([N+](=O)[O-])cc2[N+](=O)[O-])cc1`, the melting point is 115 to 116 °C.

Compound `Cc1ccc(-c2[nH]nc3c2C(=O)c2c(NC(N)=O)cccc2-3)s1` displayed a melting point greater than 280 °C. In the case of `CCC(C)c1ccc(-n2c(-c3cc(C)c(OCCO)c(C)c3)nc3c(OC)cccc3c2=O)cc1` (stereo unspecified) it was 158 to 159 °C; in that of `Cc1cc(C#N)sc1-c1ccc2c(c1)C(C)(C)OC(C)N2` (stereo unspecified), 145 to 146 °C; in that of `COP(=O)(CNC(=O)[C@H](C)NC(=O)[C@H](C)NC(=O)OCc1ccccc1)OC`, 106 to 108 °C. In the case of `CC(C)(C)OC(=O)NNC1C2CC3CC(C2)CC1C3` (stereo unspecified) it was 90 to 92 °C. In the case of `C=C(C)c1cccc2c(C(=O)O)cccc12` it was 138 to 140 °C; in that of `FC(F)(F)c1ccc2nc3c(nc2c1)-c1cccc2cccc-3c12`, 185 to 186 °C; in that of `CC1(C)Oc2ccc(OCCCC(F)(F)F)cc2[C@H](NS(C)(=O)=O)[C@H]1O`, 186 °C. Consider `Cc1cc(-c2cccc(C(F)(F)F)c2)c2nc(C(F)(F)F)cnc2c1`, for which the melting point lay in the range of 117 to 118 °C. In the case of `COc1ccc(C2=NNC(=O)CC2c2ccc(OC)c(F)c2)cc1F` (stereo unspecified) it was 196 to 198 °C; in that of `OCCCc1cnoc1-c1ccc(Cl)c(F)c1`, 51 to 52 °C; in that of `CC(C)N1CCC(COc2ccc(-c3ccc(=O)[nH]n3)cn2)CC1`, 188 to 191 °C.

For the compound `CCS(=O)CC(O)(C(=O)Nc1ccc(C#N)c(C(F)(F)F)c1)C(F)(F)F` (stereo unspecified), the melting point was 141 to 143 °C. In the case of `COc1ncc(Nc2nc(N3CCOCC3)nc(-n3c(C(F)F)nc4c(OC)cccc43)n2)cn1` it was 255 to 258 °C; in that of `CCC(=O)Nc1cccc2c1C(=O)c1cccc(NC(=O)CC)c1C2=O`, 321 °C.

Compound `CCCCCCc1cc2c(cc1C(=O)Oc1ccc(C(=O)OCc3ccccc3)cn1)C(C)(C)CCC2(C)C` gave a melting point of 94 to 95 °C. In the case of `Oc1ccc(NC2Cc3ccccc3C2)cc1` it was 165 to 167 °C; in that of `Cc1oc(-c2ccccc2)nc1COc1ccc2cc(CCCCC#N)oc2c1`, 87 to 88 °C; in that of `COCCOC(=O)NCC(C)(C)N`, 94 to 96 °C. Compound `Nc1nc(-c2cc(Cl)ccc2Cl)nc(N2CCC2)n1` came in with a melting point of 207 to 208 °C. In the case of `CCOc1ccc(CC(=O)OCc2ccc(C#N)cc2)cc1` it was 59 °C; in that of `O=C(C=Cc1cccc(Cl)c1)c1ccccc1O`, 108 °C; in that of `COc1ccc(C(C#Cc2cccc(-c3nnc(C)o3)c2)CC(=O)O)cc1OC1CCCC1` (racemic), 110 to 114 °C. In the case of `CCCC(=O)Nc1cc(N(CCO)CCO)ccc1N=Nc1snc(C)c1C#N` it was 175 to 178 °C. In the case of `CC(C)(C)c1cc2c(c(C(=O)Nc3ccc(S(=O)(=O)C(F)(F)F)cc3Cl)c1O)CCO2` it was 201 to 202 °C; in that of `C[C@@H](NC(=O)c1cnn(-c2ccc(C(F)(F)F)cc2)c1N)[C@](O)(Cn1cncn1)c1ccc(F)cc1F`, 208 to 210 °C. Compound `Nc1ccc(C(c2ccc(F)cc2)n2ccnc2)cc1[N+](=O)[O-]` (stereo unspecified) returned a melting point of 147 °C.

Regarding `COc1cc2c(cc1OC)C(=O)NN(CCCO)C2`, the melting point stood at 178 °C. The compound `O=C(NCc1c[nH]c(=S)n1[C@H]1CCc2c(F)cc(F)cc2C1)c1cccnc1` showed a melting point of 218 to 221 °C.

Compound `O=Cc1cccc(/C=C/c2nc(C3CCC3)cs2)c1` registered a melting point of 78 to 80 °C. In the case of `CC(=O)Nc1ccc(-c2cccc(C3=NC(C)(C)Cc4ccc5c(c43)CC(C)(C)O5)c2)cc1` it was 198 to 200 °C; in that of `O=c1c2ccccc2oc2cc(-c3nnn[nH]3)ccc12`, 296 °C; in that of `CN(C)C1CCN(c2cc3ccccc3c(=O)[nH]2)CC1`, 204 to 205 °C. Compound `Cc1nc(NCCc2ccccc2)sc1-c1ccnc(Nc2ccc(N3CCN(Cc4ccccc4)CC3)cc2)n1` yielded a melting point of 191 to 192 °C. `Oc1ccc(CCNc2ncnc3nccnc23)cc1` came in with a melting point greater than 210 °C.

The compound `CS(=O)(=O)c1ccc(C(=O)NCc2ccc3c(c2)CN(C2CCC(=O)NC2=O)C3=O)cc1` (stereo unspecified) displayed a melting point of 260 to 262 °C. In the case of `O=C(O)c1ccc2c(c1)N(C1CC1)CNS2(=O)=O` it was 243 to 245 °C; in that of `Nc1nc(O)c2c(n1)NCC(CN(C=O)Cc1ccc(C(=O)N[C@@H](CCC(=O)O)C(=O)O)cc1)C2` (stereo partly specified), 178 °C; in that of `CCOC(=O)c1cn(-c2nnc(C)s2)cn1`, 121 to 122 °C.

As to `COc1ccc(/C=C/c2c(Cl)cncc2Cl)c2cc(-c3ccncc3)oc12`, the melting point lay within 204 to 206 °C. In the case of `COc1cc(N)ccc1CN1C(=O)C(C)(c2ccccc2Cl)c2cc(Cl)ccc21` (stereo unspecified) it was 232 °C; in that of `CCc1nc2c(cnn2CC)c(NC2CCOCC2)c1CNC(=O)c1cccc(C(=O)NCc2ccc(Cl)c(-c3cccc(CN4CC5CC4CN5)c3)c2)c1` (stereo unspecified), 145 to 149 °C. In the case of `COC(=O)c1ccc(-c2cccc(C=O)c2)cc1` it was 95 to 97 °C. In the case of `C=Cc1cnc([N+](=O)[O-])n1CC` it was 45 to 47 °C; in that of `CC(C)Cn1c(CC(C)O)nc2c(N)nc3ccccc3c21` (stereo unspecified), 196 to 198 °C. `CCC(c1ccc2[nH]c(C(F)(F)F)nc2c1)n1ccnc1` (stereo unspecified) showed a melting point of 173 °C.

`CC(=O)Nc1c(C(=O)c2cccc(Cl)c2)[nH]c2cc(Cl)ccc12` gave a melting point of 152 to 154 °C. In the case of `CS(=O)c1nnc(-c2ccc3occ(-c4cc(F)ccc4F)c3c2)o1` (stereo unspecified) it was 151 to 152 °C; in that of `CCC(CC)n1cc(Cl)nc(N2CCc3cc(Br)cc(Cl)c32)c1=O`, 156 to 157 °C. Consider `O=C1C(c2cc3c(cc2O)OCCC3)c2ccccc2N1C(c1ccccc1)c1ccccc1` (stereo unspecified), for which the melting point lay in the range of 207 to 210 °C. In the case of `Cc1ccc(-c2nnc(S)nc2-c2ccc(C)cc2)cc1` it was 220 to 223 °C; in that of `CN1[C@@H](c2cccc(Br)c2)c2ccccc2S1(=O)=O`, 157 °C; in that of `CC1=NN(c2cccc(C(=O)O)c2)C(=O)C1=c1[nH]c(=c2[nH]c(=C3C(=O)N(c4cccc(C(=O)O)c4)N=C3C)c3ccccc23)c2ccccc12`, greater than 300 °C.
